Measured values taken from patent US11339144B2 (Navitor Pharmaceuticals, Inc., priority 2017, dated 2022).
pIC50: −log10 of the molar value.

Columns and labels:
[1] = molecular target: HA-GST-Rheb (GTP-γ-S loaded) activating mTORC1 (Homo sapiens (Human), UniProt Q15382); assay: Rheb-dependent in vitro kinase assay (Rheb-IVK; LanthaScreen or Western readout); type: biochemical; settings: Rheb-dependent in vitro kinase assay; read-out: IVK IC50
Rheb = Rheb (Homo sapiens (Human), UniProt Q15382); assay: Affinity Selection Mass Spectrometry (ASMS); type: binding; settings: affinity (R3/R0) in Affinity Selection Mass Spectrometry assay
In short: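 Affinity selection used 2 μM compound with 60 μM Rheb and 180 μM GDP for 30 min at room temperature. After 10 kDa ultrafiltration washes, protein was denatured in MeCN and bound compound quantified by C18 UPLC with Q-TOF MS, against a no-protein control.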

Sequence of Rheb (Q15382 1-169 limits assumed): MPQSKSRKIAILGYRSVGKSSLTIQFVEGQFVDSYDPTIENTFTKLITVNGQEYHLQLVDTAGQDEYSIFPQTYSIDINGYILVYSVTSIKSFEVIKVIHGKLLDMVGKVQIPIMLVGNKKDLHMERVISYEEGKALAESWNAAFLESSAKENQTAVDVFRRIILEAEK
Sequence of HA-GST-Rheb (GTP-γ-S loaded) activating mTORC1 (Q15382 1-181): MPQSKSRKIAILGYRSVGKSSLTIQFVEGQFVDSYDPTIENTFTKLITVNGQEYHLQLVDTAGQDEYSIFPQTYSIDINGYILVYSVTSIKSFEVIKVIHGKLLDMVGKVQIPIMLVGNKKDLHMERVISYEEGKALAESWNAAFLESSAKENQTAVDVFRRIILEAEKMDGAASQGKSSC

pIC50 [1] | ASMS (R3/R0) (Rheb) | Structure (SMILES)
4.00 to 5.00 | A (an affinity (R3/R0)>100%) | Clc1ccc(COc2cc3nc(-c4ccncc4)[nH]c3c(Cl)c2Cl)cc1 [I-354, 6,7-dichloro-5-(4-chlorobenzyloxy)-2-(pyridin-4-yl)-1H-benzo[d]imidazole]
4.00 to 5.00 | A (an affinity (R3/R0)>100%) | OCc1nc2cc(SCc3ccc(Cl)cc3)c(Cl)c(Cl)c2[nH]1 [I-356, (6,7-dichloro-5-(4-chlorobenzylthio)-1H-benzo[d]imidazol-2-yl)methanol]
< 4.00 | A (an affinity (R3/R0)>100%) | Clc1c(Br)cc2nc(-c3ccncc3)[nH]c2c1Cl [I-357]
4.00 to 5.00 | A (an affinity (R3/R0)>100%) | Clc1cc2nc(-c3ccnc4[nH]ccc34)[nH]c2cc1Cl [I-359, 5,6-dichloro-2-(1H-pyrrolo[2,3-b]pyridin-4-yl)-1H-benzo[d]imidazole]
4.00 to 5.00 | A (an affinity (R3/R0)>100%) | COC(=O)c1ccc(-c2nc3cc(Cl)c(Cl)cc3[nH]2)cc1 [I-363, methyl 4-(5,6-dichloro-1H-benzo[d]imidazol-2-yl)benzoate]
< 4.00 | A (an affinity (R3/R0)>100%) | Clc1cc2nc(-c3ccc(-c4ccncc4)cc3)[nH]c2cc1Cl [I-372]
4.00 to 5.00 | C (an affinity (R3/R0)<20%) | OC1CC(COc2c(Cl)c(Cl)cc3c2nc2n3COC2)CC1O (stereo not shown) [I-373, 4-((6,7-dichloro-1,3-dihydrobenzo[d]oxazolo[3,4-a]imidazol-5-yloxy)methyl)cyclopentane-1,2-diol]
< 4.00 | C (an affinity (R3/R0)<20%) | CC(C)(C)OC(=O)c1ccc(Cn2c(-c3ccncc3)nc3cc(Cl)c(Cl)cc32)cc1 [I-374]
> 5.00 | A (an affinity (R3/R0)>100%) | OCc1nc2cc(OCc3ccc(Cl)cc3)c(Cl)c(Cl)c2[nH]1 [I-375, (6,7-dichloro-5-(4-chlorobenzyloxy)-1H-benzo[d]imidazol-2-yl)methanol]
< 4.00 | C (an affinity (R3/R0)<20%) | OCc1nc2c(OCC3CCCC3O)c(Cl)c(Cl)cc2[nH]1 (stereo not shown) [I-379, 2-((5,6-dichloro-2-(hydroxymethyl)-1H-benzo[d]imidazol-4-yloxy)methyl)cyclopentanol]
3.52 to 4.00 | C (an affinity (R3/R0)<20%) | OCc1nc2c(OCC3CCCCC3O)cc(Cl)cc2[nH]1 (stereo not shown) [I-390, 2-((6-chloro-2-(hydroxymethyl)-1H-benzo[d]imidazol-4-yloxy)methyl)cyclohexanol]
> 5.00 | A (an affinity (R3/R0)>100%) | OCc1nc2c(OCC3CCCCC3)c(Cl)c(Cl)cc2[nH]1 [I-395, (5,6-dichloro-4-(cyclohexylmethoxy)-1H-benzo[d]imidazol-2-yl)methanol]

More lines, now with the values behind:

Structure (SMILES) | pIC50 [1] | ASMS (R3/R0) (Rheb)
OCc1nc2cc(OCc3ccc(OC(F)(F)F)cc3)c(Cl)c(Cl)c2[nH]1 [I-352, (6,7-dichloro-5-(4-(trifluoromethoxy)benzyloxy)-1H-benzo[d]imidazol-2-yl)methanol] | < 5.52 | A (an affinity (R3/R0)>100%)
Clc1cc2nc(-c3cccnc3)[nH]c2c(Cl)c1Cl [I-355] | < 4.00 | B (an affinity (R3/R0) between 100% and 20%)
OCc1nc2cc(Sc3ccc(Cl)cc3Cl)c(Cl)c(Cl)c2[nH]1 [I-358, (6,7-dichloro-5-(2,4-dichlorophenylthio)-1H-benzo[d]imidazol-2-yl)methanol] | 4.00 to 5.00 | B (an affinity (R3/R0) between 100% and 20%)
Nc1ccc(-c2nc3cc(Cl)c(Cl)cc3[nH]2)cc1 [I-360] | < 4.00 | B (an affinity (R3/R0) between 100% and 20%)
OCc1nc2cc(Cl)c(SCc3ccc(Cl)cc3Cl)cc2[nH]1 [I-361, (5-chloro-6-(2,4-dichlorobenzylthio)-1H-benzo[d]imidazol-2-yl)methanol] | 3.52 to 4.00 | B (an affinity (R3/R0) between 100% and 20%)
CN1CCC(CCNC(=O)c2ccc(-c3nc4cc(Cl)c(Cl)cc4[nH]3)cc2)CC1 [I-362] | < 4.00 | A (an affinity (R3/R0)>100%)
O=C(O)c1ccc(-c2nc3cc(Cl)c(Cl)cc3[nH]2)cc1 [I-364, 4-(5,6-dichloro-1H-benzo[d]imidazol-2-yl)benzoic acid] | 3.52 to 4.00 | B (an affinity (R3/R0) between 100% and 20%)
O=C(O)c1ccc(Cn2c(-c3ccncc3)nc3cc(Cl)c(Cl)cc32)cc1 [I-365, 4-((5,6-dichloro-2-(pyridin-4-yl)-1H-benzo[d]imidazol-1-yl)methyl)benzoic acid] | 4.00 to 5.00 | C (an affinity (R3/R0)<20%)
CN1CCN(c2ccc(-c3nc4cc(Cl)c(Cl)cc4[nH]3)cc2)CC1 [I-366, 5,6-dichloro-2-(4-(4-methylpiperazin-1-yl)phenyl)-1H-benzo[d]imidazole] | 3.52 to 4.00 | A (an affinity (R3/R0)>100%)
CN1CCN(c2cccc(-c3nc4cc(Cl)c(Cl)cc4[nH]3)c2)CC1 [I-367] | < 4.00 | B (an affinity (R3/R0) between 100% and 20%)
Clc1cc2nc(-c3ccnc(-c4ccccc4)c3)[nH]c2cc1Cl [I-368] | < 4.00 | B (an affinity (R3/R0) between 100% and 20%)
N#Cc1ccc(-c2nc3cc(Cl)c(Cl)cc3[nH]2)cc1 [I-370, 4-(5,6-dichloro-1H-benzo[d]imidazol-2-yl)benzonitrile] | 4.00 to 5.00 | B (an affinity (R3/R0) between 100% and 20%)
OCc1nc2c(Sc3ccc(Cl)cc3Cl)c(Cl)c(Cl)cc2[nH]1 [I-371, (5,6-dichloro-4-(2,4-dichlorophenylthio)-1H-benzo[d]imidazol-2-yl)methanol] | 4.00 to 5.00 | B (an affinity (R3/R0) between 100% and 20%)
OCc1nc2c(OCC3CC=CC3)c(Cl)c(Cl)cc2[nH]1 [I-377] | < 4.00 | B (an affinity (R3/R0) between 100% and 20%)
Clc1cc2nc(-c3ccncc3)[nH]c2cc1Cl [I-378, 5,6-dichloro-2-(pyridin-4-yl)-1H-benzo[d]imidazole] | 4.00 to 5.00 | B (an affinity (R3/R0) between 100% and 20%)
OCc1nc2cc(Cl)c(OCCc3ccc(Cl)cc3)cc2[nH]1 [I-380, (5-chloro-6-(4-chlorophenethoxy)-1H-benzo[d]imidazol-2-yl)methanol] | 4.00 to 5.00 | B (an affinity (R3/R0) between 100% and 20%)
OCc1nc2c(OCC3COCC3O)c(Cl)c(Cl)cc2[nH]1 (stereo not shown) [I-381] | < 4.00 | C (an affinity (R3/R0)<20%)
Nc1cc(CCOc2c(Cl)c(Cl)cc3[nH]c(CO)nc23)ccn1 [I-382] | 3.52 to 4.00 | C (an affinity (R3/R0)<20%)
OCc1nc2c(OCC3CCCC(O)C3)c(Cl)c(Cl)cc2[nH]1 (stereo not shown) [I-396, 3-((5,6-dichloro-2-(hydroxymethyl)-1H-benzo[d]imidazol-4-yloxy)methyl)cyclohexanol] | 4.00 to 5.00 | C (an affinity (R3/R0)<20%)
OCc1nc2c(OCC3CCC(O)CC3)c(Cl)c(Cl)cc2[nH]1 (stereo not shown) [I-399, 4-((5,6-dichloro-2-(hydroxymethyl)-1H-benzo[d]imidazol-4-yloxy)methyl)cyclohexanol] | 4.00 to 5.00 | C (an affinity (R3/R0)<20%)
